The results in this text go back to US20210388005A1, “FLUORESCENT COMPOUND AND PREPARATION METHOD AND USE FOR THE SAME” (NEUBORON MEDTECH LTD., priority 2019, published 2021).

Data set [1] is described as follows: near-infrared absorption spectrum in ethanol solution. The class given is physicochemical. Here is the method: FIG. 3 is a near-infrared absorption spectrum of compound I-1 and compound I-2 in Example 4 in ethanol solution.
(§1) To a single-necked flask is added 300 ml of absolute ethyl alcohol, 6.47 g of 3-bromomethyl phenylboronate indole quaternary ammonium salt, 2-chloro-3-hydroxymethylene cyclohexene carboxaldehyde, and 0.15 g of sodium acetate. The mixture is reacted at 70° C. for 1 h, and spin dried to remove the solvent. The resulting residue is separated by column chromatography, to obtain fluorescent compounds I-1 and I-2. The fluorescent compound I-1 has a maximum fluorescence emission peak at 808 nm when excited at a wavelength of […], and has a near infrared absorption peak in ethanol solution at 785 nm. The fluorescent compound I-2 has a maximum fluorescence emission peak at 811 nm when excited at a wavelength of […], and has a near infrared absorption peak in ethanol solution at 788 nm.

Data set [2] can be described thus: fluorescence spectrum at room temperature. The class given is physicochemical. Particulars: excited at a wavelength. Here is the method:
as §1

`CC1(C)C(/C=C/C2=C(Cl)C(=C/C=C3/N(Cc4cccc(B(O)O)c4)c4ccccc4C3(C)C)/CCC2)=[N+](Cc2cccc(B(O)O)c2)c2ccccc21` [Compound I-1]: the “near infrared absorption peak” value in data set [1] was 785 nm. For the same compound, the “maximum fluorescence emission peak” value in data set [2] is 808 nm.

Turning to `CC1(C)C(/C=C/C2=C(Cl)C(=C/C=C3/N(Cc4ccccc4)c4ccccc4C3(C)C)/CCC2)=[N+](Cc2cccc(B(O)O)c2)c2ccccc21` [Compound I-2], the “near infrared absorption peak” value in data set [1] is recorded as 788 nm. Also, in data set [2], the “maximum fluorescence emission peak” value is recorded as 811 nm.
